One data set concerns the target T1, human Smoothened (Homo sapiens, UniProt Q99835).
T1 construct: made in house; host or cells: yeast (membrane preparation)
Kind of data set: Microscale thermophoresis on membranes from yeast expressing human Smoothened. The note with it: MST; sPAH 15 nM to 250 µM. Type of data set: binding. As to the method:
Microscale thermophoresis (MST) is a biophysical technique that measures the strength of the interaction between two molecules by detecting a variation in the fluorescence signal of a fluorescently labeled target as a result of an IR-laser induced temperature change. The range of the variation in the fluorescence signal correlates with the binding of a ligand to the fluorescent target.
Membranes from yeast expressing human Ptch1 or human Smoothened were incubated at 30 µg/mL with 20 nM of the fluorescent dye NT-647 2nd gen (NanoTemper Technologies, München, Germany) to label the His-tag present at the c-terminus of both proteins. […] The fluorescence within the capillary is excited and detected through the same objective. […] The MST response of fluorescent proteins within the temperature gradient is detected. After activation of the IR laser, a decrease in fluorescence is observed which corresponds to temperature-related intensity change (TRIC) triggered by the fast temperature change and thermophoretic movement of the fluorescent proteins out of the heated sample volume. […] For analysis, the change in MST signal is expressed as the change in the normalized fluorescence (Fnorm), which is defined as F1/F0. […] The sPAH Kd was determined for 3 independent experiments.

The nature of data set [1]: Cytotoxicity assay (neutral red), MeWo cells. The note with it: human, MeWo melanoma cells, MeWo; 24 or 48 h; read-out: sPAH-IC50 (cytotoxicity of sPAH alone). It counts as cell-based, human. As to the method:
(§1) Human melanoma cell lines A375 and MeWo were purchased from ATCC, and cultured in DMEM medium supplemented with 10% fetal bovine serum and penicillin/streptomycin (Invitrogen) at 37 °C in a 5% CO2/95% water-saturated air atmosphere. Melanoma cell lines SKMEL 28, SKMEL V3, WM9S, and WM9R were provided by Robert Ballotti (C3M, Nice, France). MeWo-dxrR cells were obtained by adding increasing concentrations of doxorubicin, up to 0.2 µM, in the culture medium over 6 months. These cells were grown in medium supplemented with 0.2 µM dxr. WM9R cells were obtained by adding increasing concentrations of vemurafenib, up to 5 µM, in the culture medium over 6 months. These cells were grown in medium supplemented with 5 µM vemurafenib. HEK cells were grown in 75 mm tissue culture dishes (Falcon, Franklin Lakes, NJ, USA) in Dulbecco’s modified Eagle’s medium (Gibco, Life Technologies, Saint Aubin, France) supplemented with 10% fetal calf serum (Hyclone, Thermo Fisher Scientific GMBH, Ulm, Germany) and 1% penicillin/streptomycin (Gibco, Life Technologies, Saint Aubin, France) in a humidified incubator at 37 °C (5% CO2).
(§2) Cells were seeded in 96-well plates in triplicate and grown in medium to achieve 70 to 80% confluence. Medium was then removed and replaced with 100 µL/well of complete medium containing PAH or DMSO as a control. After 2 h, 100 µL of complete medium containing serial dilutions of dxr, cisplatin or vemurafenib were added. Plates were incubated at 37 °C and 5% CO2. After 24 or 48 h, cells were incubated for 3 h at 37 °C with 100 µL/well neutral red (NR) solution (50 µg/mL in medium) following the manufacturer’s protocol. Measurements were made in microplate readers (Multiskan Go Microplate Spectrophotometer from Thermo Scientific).

A further data set concerns MeWo cells. In words: Cytotoxicity assay (neutral red), MeWo cells. It counts as cell-based, human. As to the method:
as §1, §2

Data set [2] can be described thus: Cytotoxicity assay (neutral red), WM9S cells. Type of data set: cell-based. Conditions: human, WM9S melanoma cells; read-out: sPAH-IC50 (cytotoxicity of sPAH alone). As to the method:
as §1
(§3) Cells were seeded in 96-well plates in triplicate and grown in medium to achieve 70 to 80% confluence. […] Measurements were made in microplate readers (Multiskan Go Microplate Spectrophotometer from Thermo Scientific).

A further data set concerns WM9S cells. Kind of data set: Cytotoxicity assay (neutral red), WM9S cells. It counts as cell-based. Conditions: WM9S; 24 h; sPAH between 10 and 20 µM. As to the method:
as §1, §3

In another data set the test system is A375 cells. Kind of data set: BODIPY-cholesterol efflux measurement, A375 cells. Conditions: sPAH in efflux buffer, 30 min. It counts as cell-based, human.
The subject of another data set is chick embryos. In words: sPAH toxicity on chick embryos. Type of data set: in vivo. The note with it: 10 days. As to the method:
These experiments were performed by the company INOVOTION (La Tronche, France). […] At this time (E9), an access point to the chorioallantoic membrane (CAM) was made by drilling a small hole through the eggshell into the air sac and a 1 cm^2 window was cut in the eggshell above the CAM. Twenty-one eggs were used for each condition. […] MeWo cells cultivated in DMEM medium with 10% FBS (and 1% penicillin/streptomycin) were detached with trypsin, washed with complete medium, labeled, and suspended in PBS. An inoculum of 3 × 10^6 cells was added onto the CAM of each egg (E9). Eggs were then randomized in 4 groups. The chick embryos were then treated every two days (E11, E13, E15, E17) for 10 days in total, by adding 100 µL of vehicle (1% DMSO in PBS) as a negative control or 100 µL of sPAH at 3 different doses onto the CAM. The number of dead embryos evaluates the toxicity after 10 days of the treatment, as does the observation of 22 abnormality checkpoints in surviving embryos.

Like-named read-outs stand apart in the source and are kept apart here.

T1 sequence (Q99835 28-787): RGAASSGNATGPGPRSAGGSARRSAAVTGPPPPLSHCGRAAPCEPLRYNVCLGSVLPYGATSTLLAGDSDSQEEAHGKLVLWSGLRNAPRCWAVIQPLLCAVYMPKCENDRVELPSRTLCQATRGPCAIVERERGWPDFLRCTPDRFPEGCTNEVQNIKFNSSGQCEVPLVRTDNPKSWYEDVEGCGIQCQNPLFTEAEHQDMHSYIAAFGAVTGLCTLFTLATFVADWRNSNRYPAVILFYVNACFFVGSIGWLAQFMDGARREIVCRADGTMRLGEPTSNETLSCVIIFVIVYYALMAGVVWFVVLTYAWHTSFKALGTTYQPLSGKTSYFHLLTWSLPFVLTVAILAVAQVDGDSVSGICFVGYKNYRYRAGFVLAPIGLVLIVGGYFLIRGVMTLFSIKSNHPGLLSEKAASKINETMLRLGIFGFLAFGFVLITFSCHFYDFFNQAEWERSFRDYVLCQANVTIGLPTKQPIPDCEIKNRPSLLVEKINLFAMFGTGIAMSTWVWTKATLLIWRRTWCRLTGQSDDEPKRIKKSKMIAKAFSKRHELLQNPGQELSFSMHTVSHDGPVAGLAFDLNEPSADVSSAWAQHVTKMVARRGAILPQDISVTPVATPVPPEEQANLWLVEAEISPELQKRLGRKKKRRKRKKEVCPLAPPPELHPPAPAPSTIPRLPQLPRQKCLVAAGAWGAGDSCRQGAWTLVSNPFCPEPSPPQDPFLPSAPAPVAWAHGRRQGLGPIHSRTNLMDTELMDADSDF

For orientation: IC50 means the point on the concentration scale where inhibition reaches its midpoint. For `COc1cc(C)c(CC/C(C)=C/Cc2cc(O)ccc2O)c(C)c1C` [sPAH, Panicein A hydroquinone], at human Smoothened, the “binding to membranes from yeast expressing Smoothened” value was “does not bind”. Also, the IC50 in data set [1] was 36 ± 2.3 µM; in the data set with MeWo cells (MeWo cells, 2 µM Dxr present, listed as Synthetic PAH, read-out: IC50 of PAH at 2 µM Dxr), 8.1 ± 1.3 µM; in the data set with MeWo cells (MeWo, 24 or 48 h, read-out: sPAH-IC50 (cytotoxicity of sPAH alone)), approximately 40 µM; in data set [2], 28.6 ± 5.1 µM. The “IC50 of cisplatin in the presence of sPAH” value in the data set with MeWo cells (MeWo, sPAH 20 µM vs DMSO (Figure S2)) is listed as “significantly decreased”. Besides, the “sensitivity of cells to vemurafenib in the presence of sPAH” value in the data set with WM9S cells was “significantly increased”. Moreover, the “efflux of BODIPY-cholesterol” value with A375 cells was “inhibited the efflux of cholesterol”. Further, the “abnormalities in surviving embryos (22 checkpoints)” value in the data set on chick embryos (100 µM to 1 mM) is “no abnormalities were observed”. Further, the acute toxicity entry in the data set with chick embryos (up to the highest dose of 1 mM) is on record as “No acute toxicity was observed”.

(Values after article PMC7352342, “Inhibition of Patched Drug Efflux Increases Vemurafenib Effectiveness against Resistant Braf^V600E Melanoma” (Cancers, 2020).)
